# Experimental data published in ChEMBL document CHEMBL1130452, “L-373,890, An achiral, noncovalent, subnanomolar thrombin inhibitor” (Bioorg Med Chem Lett, 1997).
# Tests used:
# Serine protease 1 = Serine protease 1 (Homo sapiens, UniProt P07477); experiment: Binding affinity against human trypsin
# Chymotrypsinogen A = Chymotrypsinogen A (Bos taurus, UniProt P00766); experiment: Binding affinity against serine protease […]; assay type: cell-free
# Plasma kallikrein = Plasma kallikrein (Homo sapiens, UniProt P03952); experiment: Binding affinity against serine protease plasma kallikrein; assay type: cell-free
# [1] = molecular target: Vitamin K-dependent protein C (Homo sapiens, UniProt P04070); experiment: Binding affinity against serine protease Activated protein C
# [2] = molecular target: Tissue-type plasminogen activator (Homo sapiens, UniProt P00750); experiment: Binding affinity against serine protease Tissue type plasminogen activator
# Plasminogen = Plasminogen (Rattus norvegicus, UniProt Q01177); experiment: Binding affinity against serine protease plasmin
# Prothrombin [3] = molecular target: T1, Prothrombin (Homo sapiens, UniProt P00734); experiment: Binding affinity against human thrombin
# Prothrombin [4] = molecular target: T1, Prothrombin; experiment: Binding affinity was evaluated against human thrombin
# Chain of Serine protease 1 (P07477 whole entry): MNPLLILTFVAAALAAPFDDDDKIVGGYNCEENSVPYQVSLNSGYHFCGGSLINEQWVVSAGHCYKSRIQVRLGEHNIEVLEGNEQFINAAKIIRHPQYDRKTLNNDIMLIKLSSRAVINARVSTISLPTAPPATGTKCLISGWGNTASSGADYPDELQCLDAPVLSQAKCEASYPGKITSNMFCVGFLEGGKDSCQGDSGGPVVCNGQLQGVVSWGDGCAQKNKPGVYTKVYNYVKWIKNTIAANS
# Chain of Tissue-type plasminogen activator (P00750 whole entry): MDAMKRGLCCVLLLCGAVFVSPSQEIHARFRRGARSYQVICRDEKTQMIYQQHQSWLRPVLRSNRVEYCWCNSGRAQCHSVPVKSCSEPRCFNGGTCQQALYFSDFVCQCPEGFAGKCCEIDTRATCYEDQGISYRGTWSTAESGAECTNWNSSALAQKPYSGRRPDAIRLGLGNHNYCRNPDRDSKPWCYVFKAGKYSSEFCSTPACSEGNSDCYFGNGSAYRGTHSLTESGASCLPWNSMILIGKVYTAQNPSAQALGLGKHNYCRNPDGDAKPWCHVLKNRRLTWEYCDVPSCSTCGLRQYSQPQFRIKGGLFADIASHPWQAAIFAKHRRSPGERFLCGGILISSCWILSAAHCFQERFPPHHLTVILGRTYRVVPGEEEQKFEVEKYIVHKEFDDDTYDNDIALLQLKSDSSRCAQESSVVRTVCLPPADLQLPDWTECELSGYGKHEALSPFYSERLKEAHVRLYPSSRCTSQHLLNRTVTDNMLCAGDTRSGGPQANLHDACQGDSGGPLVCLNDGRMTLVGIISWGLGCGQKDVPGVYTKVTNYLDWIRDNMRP
# Chain of Plasminogen (Q01177 97-581 limits assumed): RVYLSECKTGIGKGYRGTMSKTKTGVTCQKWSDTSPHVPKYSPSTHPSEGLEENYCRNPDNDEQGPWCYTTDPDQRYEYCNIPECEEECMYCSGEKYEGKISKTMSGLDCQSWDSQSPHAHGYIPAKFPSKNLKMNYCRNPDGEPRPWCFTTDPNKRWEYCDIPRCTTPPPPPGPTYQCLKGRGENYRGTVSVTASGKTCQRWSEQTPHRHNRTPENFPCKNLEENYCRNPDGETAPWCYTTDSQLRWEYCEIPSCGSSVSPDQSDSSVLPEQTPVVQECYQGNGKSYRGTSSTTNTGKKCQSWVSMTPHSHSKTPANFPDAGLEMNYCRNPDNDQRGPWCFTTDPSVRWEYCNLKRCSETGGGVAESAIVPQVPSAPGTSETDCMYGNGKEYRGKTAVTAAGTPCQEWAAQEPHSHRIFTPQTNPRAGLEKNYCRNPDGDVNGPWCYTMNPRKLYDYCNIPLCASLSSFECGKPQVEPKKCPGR
# Chain of Plasminogen (Q01177 582-812 limits assumed): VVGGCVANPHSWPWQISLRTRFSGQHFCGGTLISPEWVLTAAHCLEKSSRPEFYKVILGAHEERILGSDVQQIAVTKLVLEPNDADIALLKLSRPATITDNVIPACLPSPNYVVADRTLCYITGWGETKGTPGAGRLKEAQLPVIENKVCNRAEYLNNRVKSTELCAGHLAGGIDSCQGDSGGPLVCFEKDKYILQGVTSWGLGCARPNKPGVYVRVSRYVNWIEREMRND
# Chain of Vitamin K-dependent protein C (P04070 43-197 limits assumed): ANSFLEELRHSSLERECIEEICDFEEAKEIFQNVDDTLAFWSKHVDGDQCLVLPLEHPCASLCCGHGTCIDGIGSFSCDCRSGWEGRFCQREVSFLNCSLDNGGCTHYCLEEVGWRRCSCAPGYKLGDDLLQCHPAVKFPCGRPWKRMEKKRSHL
# Chain of Vitamin K-dependent protein C (P04070 212-461 limits assumed): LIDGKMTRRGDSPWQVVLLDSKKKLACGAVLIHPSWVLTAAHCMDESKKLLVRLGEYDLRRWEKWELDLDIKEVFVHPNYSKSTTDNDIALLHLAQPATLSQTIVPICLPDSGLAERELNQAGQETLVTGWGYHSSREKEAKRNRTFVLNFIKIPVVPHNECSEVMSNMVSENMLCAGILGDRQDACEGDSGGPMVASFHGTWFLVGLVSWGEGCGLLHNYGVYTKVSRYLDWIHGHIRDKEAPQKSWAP
# Chain of Plasma kallikrein (P03952 20-390 limits assumed): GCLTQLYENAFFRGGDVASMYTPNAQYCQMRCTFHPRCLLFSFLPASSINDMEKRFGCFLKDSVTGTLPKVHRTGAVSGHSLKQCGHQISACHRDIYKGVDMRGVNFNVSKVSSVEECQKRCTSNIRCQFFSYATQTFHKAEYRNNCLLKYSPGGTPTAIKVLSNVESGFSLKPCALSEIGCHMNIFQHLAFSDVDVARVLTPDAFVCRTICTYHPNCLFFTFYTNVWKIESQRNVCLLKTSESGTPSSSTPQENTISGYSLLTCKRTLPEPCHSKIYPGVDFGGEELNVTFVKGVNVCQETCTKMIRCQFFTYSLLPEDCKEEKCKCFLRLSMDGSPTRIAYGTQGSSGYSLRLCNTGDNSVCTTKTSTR
# Chain of Plasma kallikrein (P03952 391-638 limits assumed): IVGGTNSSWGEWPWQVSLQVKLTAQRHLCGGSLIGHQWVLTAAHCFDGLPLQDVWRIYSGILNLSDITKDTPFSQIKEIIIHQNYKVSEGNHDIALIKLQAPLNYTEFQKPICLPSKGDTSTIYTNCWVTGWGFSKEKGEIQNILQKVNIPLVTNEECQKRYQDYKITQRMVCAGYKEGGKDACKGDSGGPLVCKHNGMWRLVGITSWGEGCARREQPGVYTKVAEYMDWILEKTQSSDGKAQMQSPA
Compound,Ki (Serine protease 1) [nM],Ki (Prothrombin [3]) [nM],other results
Cc1ccc(NS(=O)(=O)Cc2ccccc2)c(=O)n1CC(=O)NC[C@H]1CC[C@H](N)CC1,3000,,
CN[C@H](Cc1ccccc1)C(=O)N1CCCC1C(=O)NC[C@H]1CC[C@H](N)CC1 (some centres not stated),,,Ki (Prothrombin [4]): 5 nM
Cc1ccc(S(=O)(=O)Nc2ccc(C)n(CC(=O)NC[C@H]3CC[C@H](N)CC3)c2=O)cc1,2100,47,
Cc1ccc(NC(=O)c2ccccc2)c(=O)n1CC(=O)NCC1CCN(C(=N)N)CC1,1500,690,
Cc1ccc(S(=O)(=O)Nc2ccc(C)n(CC(=O)NCC3CCN(C(=N)N)CC3)c2=O)cc1,140,29,
Cc1ccc(NCCc2ccccc2)c(=O)n1CC(=O)NC[C@H]1CC[C@H](N)CC1,2200,47,

# Continued by falling Ki (Serine protease 1), values first:
Ki (Serine protease 1) [nM],Ki (Prothrombin [3]) [nM],Compound,other results
940,95,Cc1ccc(NC(=O)CCc2ccccc2)c(=O)n1CC(=O)NCC1CCN(C(=N)N)CC1,
890,166,Cc1ccc(NC(=O)CC(c2ccccc2)c2ccccc2)c(=O)n1CC(=O)NCC1CCN(C(=N)N)CC1,
570,,Cc1ccc(NS(=O)(=O)Cc2ccccc2)c(=O)n1CC(=O)NCC1CCN(C(=N)N)CC1,Ki (Chymotrypsinogen A): > 20 µM; Ki (Plasma kallikrein): > 20 µM; Ki [1]: > 20 µM; Ki [2]: > 20 µM; Ki (Plasminogen): > 20 µM
350,77,Cc1ccc(NC(=O)OCc2ccccc2)c(=O)n1CC(=O)NCC1CCN(C(=N)N)CC1,
